{
  "source": "ChEMBL document CHEMBL1201862",
  "about": "“PubChem BioAssay data set” (2004)",
  "key": {"Estrogen receptor": {"target": "T1, Estrogen receptor (Homo sapiens, UniProt P03372)", "T1 sequence (P03372 whole entry)": "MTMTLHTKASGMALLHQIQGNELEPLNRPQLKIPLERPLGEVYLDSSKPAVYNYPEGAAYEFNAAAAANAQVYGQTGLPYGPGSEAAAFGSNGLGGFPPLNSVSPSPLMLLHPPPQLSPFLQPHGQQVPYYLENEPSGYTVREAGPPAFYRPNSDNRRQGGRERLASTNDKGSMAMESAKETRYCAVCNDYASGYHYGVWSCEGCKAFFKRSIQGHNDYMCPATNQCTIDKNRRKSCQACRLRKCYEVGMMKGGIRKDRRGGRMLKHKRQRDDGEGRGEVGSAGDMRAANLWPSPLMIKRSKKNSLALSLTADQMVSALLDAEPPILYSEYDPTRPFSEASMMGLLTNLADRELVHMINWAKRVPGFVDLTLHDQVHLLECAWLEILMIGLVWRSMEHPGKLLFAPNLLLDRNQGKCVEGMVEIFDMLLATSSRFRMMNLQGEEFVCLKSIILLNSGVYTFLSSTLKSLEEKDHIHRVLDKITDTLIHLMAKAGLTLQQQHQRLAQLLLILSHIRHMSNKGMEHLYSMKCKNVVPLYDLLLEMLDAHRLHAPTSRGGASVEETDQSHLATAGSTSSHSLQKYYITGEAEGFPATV", "assay": "potentiators of ERα–SRC-1 coactivator binding, dose response, biochemical, TR-FRET, ERα LBD (AID 737)"}, "Nonstructural protein 1": {"target": "Nonstructural protein 1 (Influenza A virus, UniProt Q194T2)", "sequence (Q194T2 whole entry)": "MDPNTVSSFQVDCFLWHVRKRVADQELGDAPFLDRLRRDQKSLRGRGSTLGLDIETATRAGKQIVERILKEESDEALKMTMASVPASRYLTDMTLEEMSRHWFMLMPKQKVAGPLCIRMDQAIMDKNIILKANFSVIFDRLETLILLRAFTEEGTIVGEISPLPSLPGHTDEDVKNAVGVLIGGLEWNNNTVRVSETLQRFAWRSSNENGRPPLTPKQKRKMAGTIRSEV", "type": "functional, Influenza A virus (A/California/07/2009(H1N1))"}, "cells": {"assay": "cells", "type": "functional, cell-based"}, "[1]": {"target": "T2, Nuclear receptor subfamily 0 group B member 1 (Homo sapiens, UniProt P51843)", "T2 sequence (P51843 whole entry)": "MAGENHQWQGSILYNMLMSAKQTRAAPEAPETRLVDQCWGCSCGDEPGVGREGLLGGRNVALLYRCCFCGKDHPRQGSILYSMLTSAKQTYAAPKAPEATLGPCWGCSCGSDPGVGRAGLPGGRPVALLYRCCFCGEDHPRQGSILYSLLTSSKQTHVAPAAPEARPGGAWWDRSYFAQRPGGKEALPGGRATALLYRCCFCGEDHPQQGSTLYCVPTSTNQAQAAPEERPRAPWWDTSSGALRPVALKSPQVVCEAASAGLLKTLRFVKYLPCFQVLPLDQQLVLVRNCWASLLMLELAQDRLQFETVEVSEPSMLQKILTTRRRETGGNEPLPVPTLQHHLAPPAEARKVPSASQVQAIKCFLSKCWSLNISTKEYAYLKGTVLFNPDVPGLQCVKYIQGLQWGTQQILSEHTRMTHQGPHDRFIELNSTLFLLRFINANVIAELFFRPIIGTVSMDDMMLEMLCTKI", "type": "functional, cell-based"}, "Protein Tat": {"target": "Protein Tat (Human immunodeficiency virus type 1 group M subtype B (isolate HXB2)(HIV-1), UniProt P04608)", "sequence (P04608 whole entry)": "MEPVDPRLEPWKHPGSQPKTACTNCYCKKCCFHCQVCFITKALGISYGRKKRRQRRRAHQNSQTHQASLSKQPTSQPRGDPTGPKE", "type": "functional"}, "[2]": {"target": "Glutathione-S-transferase (Schistosoma japonicum, UniProt Q26513)", "sequence (Q26513 whole entry)": "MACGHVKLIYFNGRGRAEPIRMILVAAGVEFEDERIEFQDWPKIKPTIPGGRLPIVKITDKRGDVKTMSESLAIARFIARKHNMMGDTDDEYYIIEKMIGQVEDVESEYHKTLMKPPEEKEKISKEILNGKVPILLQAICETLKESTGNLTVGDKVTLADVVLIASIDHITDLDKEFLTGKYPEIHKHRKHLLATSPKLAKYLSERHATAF", "assay": "biotin-GST/anti-GST TR-FRET signal inhibitors, dose response, artefact control for Vif-APOBEC3G degradation inhibitor project, biochemical (AID 1117362)", "type": "functional"}, "NADPH oxidase 1": {"target": "NADPH oxidase 1 (Homo sapiens, UniProt Q9Y5S8)", "sequence (Q9Y5S8 whole entry)": "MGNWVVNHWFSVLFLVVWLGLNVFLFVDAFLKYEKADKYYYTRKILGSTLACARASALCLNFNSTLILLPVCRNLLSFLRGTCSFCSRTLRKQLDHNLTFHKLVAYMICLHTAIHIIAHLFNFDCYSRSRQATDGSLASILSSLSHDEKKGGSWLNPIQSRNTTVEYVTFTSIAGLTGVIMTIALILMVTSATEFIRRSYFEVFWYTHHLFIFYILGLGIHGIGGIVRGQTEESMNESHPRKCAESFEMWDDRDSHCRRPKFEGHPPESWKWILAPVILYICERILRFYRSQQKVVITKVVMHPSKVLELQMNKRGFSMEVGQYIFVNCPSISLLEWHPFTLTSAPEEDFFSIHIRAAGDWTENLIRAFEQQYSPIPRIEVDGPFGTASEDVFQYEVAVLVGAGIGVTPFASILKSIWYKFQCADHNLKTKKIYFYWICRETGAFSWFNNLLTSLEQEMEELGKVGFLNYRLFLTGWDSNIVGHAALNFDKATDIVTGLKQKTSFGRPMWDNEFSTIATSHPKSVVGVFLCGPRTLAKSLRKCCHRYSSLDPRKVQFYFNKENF", "type": "functional, cell-based"}, "Estrogen receptor beta [3]": {"target": "T3, Estrogen receptor beta (Homo sapiens, UniProt Q92731)", "T3 sequence (Q92731 whole entry)": "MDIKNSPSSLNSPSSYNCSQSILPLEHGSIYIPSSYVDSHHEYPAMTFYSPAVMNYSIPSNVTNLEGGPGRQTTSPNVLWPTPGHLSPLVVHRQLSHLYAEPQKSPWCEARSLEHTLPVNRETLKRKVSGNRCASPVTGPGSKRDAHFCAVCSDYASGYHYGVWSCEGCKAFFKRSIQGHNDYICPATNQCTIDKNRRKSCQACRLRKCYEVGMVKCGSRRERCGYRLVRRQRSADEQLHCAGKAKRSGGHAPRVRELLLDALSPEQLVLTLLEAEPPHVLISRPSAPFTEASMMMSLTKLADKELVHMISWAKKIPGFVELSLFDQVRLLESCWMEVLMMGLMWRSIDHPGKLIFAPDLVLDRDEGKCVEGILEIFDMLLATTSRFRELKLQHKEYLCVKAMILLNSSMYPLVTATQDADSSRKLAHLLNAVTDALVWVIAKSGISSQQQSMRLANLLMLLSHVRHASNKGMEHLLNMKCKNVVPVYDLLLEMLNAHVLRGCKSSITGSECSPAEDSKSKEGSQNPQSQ"}, "Estrogen receptor beta [4]": {"target": "T3, Estrogen receptor beta", "assay": "ERβ–SRC-3 coactivator interaction inhibitors, confirmation, orthogonal assay, biochemical, ELISA, streptavidin-HRP readout (AID 1060)"}, "[5]": {"target": "Solute carrier family 12 member 2/member 5 (Homo sapiens, UniProt P55011+Q9H2X9)", "assay": "KCC2 and NKCC1 inhibition by rubidium flux, cell-based, NKCC1 counter-screen (AID 1734)", "type": "functional, HEK293"}, "[6]": {"target": "T4, Mannose-6-phosphate isomerase (Homo sapiens, UniProt P34949)", "T4 sequence (P34949 whole entry)": "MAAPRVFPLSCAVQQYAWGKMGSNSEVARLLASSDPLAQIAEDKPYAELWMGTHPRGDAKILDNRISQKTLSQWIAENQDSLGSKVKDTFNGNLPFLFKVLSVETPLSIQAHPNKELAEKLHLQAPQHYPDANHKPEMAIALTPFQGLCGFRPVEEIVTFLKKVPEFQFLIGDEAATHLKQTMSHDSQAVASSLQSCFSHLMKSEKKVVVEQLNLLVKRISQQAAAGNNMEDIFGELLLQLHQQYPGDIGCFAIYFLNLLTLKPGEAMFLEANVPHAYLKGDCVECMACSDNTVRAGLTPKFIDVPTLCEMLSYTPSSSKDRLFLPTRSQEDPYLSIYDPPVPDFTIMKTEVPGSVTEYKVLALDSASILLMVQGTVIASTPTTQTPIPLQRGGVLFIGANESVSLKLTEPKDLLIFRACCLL", "assay": "human PMI inhibitors, high substrate, primary screen, biochemical, fluorescence intensity, high mannose 6-phosphate (AID 1220)"}, "Leucine aminopeptidase": {"target": "T5, Leucine aminopeptidase (Plasmodium falciparum 3D7, UniProt Q8IL11)", "T5 sequence (Q8IL11 whole entry)": "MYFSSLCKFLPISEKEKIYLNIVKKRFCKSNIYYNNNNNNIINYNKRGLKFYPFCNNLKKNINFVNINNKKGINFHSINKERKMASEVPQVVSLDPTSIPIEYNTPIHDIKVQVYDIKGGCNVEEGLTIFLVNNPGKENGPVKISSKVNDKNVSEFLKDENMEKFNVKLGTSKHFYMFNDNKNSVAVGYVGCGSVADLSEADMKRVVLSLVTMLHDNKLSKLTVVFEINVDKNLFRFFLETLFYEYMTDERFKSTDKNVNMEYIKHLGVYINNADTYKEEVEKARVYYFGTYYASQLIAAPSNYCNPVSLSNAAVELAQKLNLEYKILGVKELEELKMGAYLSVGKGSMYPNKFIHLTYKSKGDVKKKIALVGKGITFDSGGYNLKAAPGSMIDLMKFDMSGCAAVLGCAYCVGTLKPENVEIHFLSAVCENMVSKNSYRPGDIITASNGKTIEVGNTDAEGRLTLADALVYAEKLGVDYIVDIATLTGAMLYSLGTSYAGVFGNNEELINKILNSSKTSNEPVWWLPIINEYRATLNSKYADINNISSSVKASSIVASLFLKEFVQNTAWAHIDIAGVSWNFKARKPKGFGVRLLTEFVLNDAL", "assay": "P. falciparum M17LAP inhibitors, primary screen, biochemical, fluorogenic H-Leu-NHMec substrate, 1536-well (AID 1619)", "type": "functional"}, "Aspartyl aminopeptidase": {"target": "T6, Aspartyl aminopeptidase (Plasmodium falciparum 3D7, UniProt Q8I2J3)", "T6 sequence (Q8I2J3 whole entry)": "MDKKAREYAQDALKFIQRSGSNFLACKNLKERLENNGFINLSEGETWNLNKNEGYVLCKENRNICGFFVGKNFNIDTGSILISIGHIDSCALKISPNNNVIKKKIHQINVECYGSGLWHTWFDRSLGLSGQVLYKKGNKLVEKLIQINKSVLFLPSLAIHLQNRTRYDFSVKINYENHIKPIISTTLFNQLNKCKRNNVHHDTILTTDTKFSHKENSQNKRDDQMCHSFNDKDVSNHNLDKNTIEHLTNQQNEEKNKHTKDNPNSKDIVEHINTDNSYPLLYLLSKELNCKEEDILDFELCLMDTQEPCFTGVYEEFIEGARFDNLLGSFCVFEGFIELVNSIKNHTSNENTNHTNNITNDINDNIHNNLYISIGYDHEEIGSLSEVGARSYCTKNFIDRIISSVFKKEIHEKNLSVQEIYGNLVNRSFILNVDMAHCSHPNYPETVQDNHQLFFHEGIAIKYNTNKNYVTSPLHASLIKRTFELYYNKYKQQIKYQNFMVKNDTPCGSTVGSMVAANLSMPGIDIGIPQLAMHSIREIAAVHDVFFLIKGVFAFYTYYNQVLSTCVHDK", "assay": "Counterscreen for inhibitors of M1 and M17 aminopeptidases: QFRET-based biochemical high throughput dose response assay for inhibitors of the Plasmodium falciparum M18 Aspartyl Aminopeptidase (PFM18AAP). [Related PubChem assays: 1619 (Screening assay (M17LAP inhibitors).), 1445 (Screening assay (M1AAP inhibitors).)]"}, "Procathepsin L": {"target": "Procathepsin L (Homo sapiens, UniProt P07711)", "sequence (P07711 whole entry)": "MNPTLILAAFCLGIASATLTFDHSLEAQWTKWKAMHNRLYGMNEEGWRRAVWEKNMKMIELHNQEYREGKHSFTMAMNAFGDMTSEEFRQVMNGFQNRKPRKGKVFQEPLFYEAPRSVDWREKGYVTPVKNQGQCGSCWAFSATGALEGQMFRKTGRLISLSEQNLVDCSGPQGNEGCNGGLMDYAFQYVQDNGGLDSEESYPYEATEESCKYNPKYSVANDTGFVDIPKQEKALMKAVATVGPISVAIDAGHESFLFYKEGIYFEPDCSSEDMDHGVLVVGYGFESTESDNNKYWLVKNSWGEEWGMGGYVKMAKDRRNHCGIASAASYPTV", "assay": "cathepsin L inhibitors, dose response, counter-screen for M1/M17 aminopeptidase inhibitor project, biochemical, QFRET, 1536-well (AID 2214)"}},
  "note": "Active and inactive are the calls of the source.",
  "data": [
    {"compound": "Cc1cc(-c2nnc3sc(-c4ccc(Cl)cc4Cl)nn23)n[nH]1", "values": [
      {"measurement": "EC50", "setting": "Estrogen receptor", "value": "15.4 µM (active)"}
    ]},
    {"compound": "CCCn1cnc2cc(NCc3ccccn3)ccc21", "values": [
      {"measurement": "IC50", "setting": "Nonstructural protein 1", "value": "> 100 µM (active)"},
      {"measurement": "IC50", "setting": "cells", "value": "> 67.5 µM (inactive)"},
      {"measurement": "IC50", "setting": "[1]", "value": "> 67.5 µM (inactive)"},
      {"measurement": "IC50", "setting": "Protein Tat", "value": "> 100 µM (active)"},
      {"measurement": "IC50", "setting": "[2]", "value": "> 100 µM (active)"}
    ]},
    {"compound": "O=C(Oc1ccccc1[N+](=O)[O-])c1sc2ccccc2c1Cl", "values": [
      {"measurement": "IC50", "setting": "NADPH oxidase 1", "value": "> 17 µM (not active)"}
    ]},
    {"compound": "Cc1ccc(-c2nnc(CSc3nc4cc5c(cc4cc3C)OCO5)o2)cc1", "values": [
      {"measurement": "IC50", "setting": "Estrogen receptor beta [3]", "value": "> 50 µM (not active)"},
      {"measurement": "IC50", "setting": "Estrogen receptor beta [4]", "value": "0.0359 µM (not active)"}
    ]},
    {"compound": "O=C(Cn1cnc2c(nnn2Cc2ccc(F)cc2)c1=O)N1CCCc2ccccc21", "values": [
      {"measurement": "IC50", "setting": "[5]", "value": "1.3 µM (active)"}
    ]},
    {"compound": "C=CCn1c(SCC(=O)N2N=C(c3ccco3)CC2c2ccco2)nnc1-c1ccncc1", "note": "(centres undefined)", "values": [
      {"measurement": "IC50", "setting": "[6]", "value": "> 50 µM (not active)"}
    ]},
    {"compound": "Cc1ccc(NC(=O)CSc2nnc(C)c(=O)[nH]2)cc1C", "values": [
      {"measurement": "IC50", "setting": "Leucine aminopeptidase", "value": "3.51 µM (active)"},
      {"measurement": "IC50", "setting": "Aspartyl aminopeptidase", "value": "> 73.5 µM (not active)"},
      {"measurement": "IC50", "setting": "Procathepsin L", "value": "> 59.6 µM (not active)"}
    ]}
  ]
}
